Test results: ChEMBL document CHEMBL1121950, “Species- or isozyme-specific enzyme inhibitors. 9. Selective effects in inhibitions of rat pyruvate kinase isozymes by adenosine 5'-diphosphate derivatives” (J Med Chem, 1982)
Several values for one entry are separate records, joined by “and”; a condition that tells them apart may be missing. Identical values can stand only once.

Assays:
Pyruvate kinase PKLR [1] = molecular target: T1, Pyruvate kinase PKLR (Rattus norvegicus, UniProt P12928); assay: Inhibitory constant for inhibition of pyruvate kinase obtained from rat liver (PK-L) was determined using ADP as competitive inhibitor
T1 sequence (P12928 whole entry): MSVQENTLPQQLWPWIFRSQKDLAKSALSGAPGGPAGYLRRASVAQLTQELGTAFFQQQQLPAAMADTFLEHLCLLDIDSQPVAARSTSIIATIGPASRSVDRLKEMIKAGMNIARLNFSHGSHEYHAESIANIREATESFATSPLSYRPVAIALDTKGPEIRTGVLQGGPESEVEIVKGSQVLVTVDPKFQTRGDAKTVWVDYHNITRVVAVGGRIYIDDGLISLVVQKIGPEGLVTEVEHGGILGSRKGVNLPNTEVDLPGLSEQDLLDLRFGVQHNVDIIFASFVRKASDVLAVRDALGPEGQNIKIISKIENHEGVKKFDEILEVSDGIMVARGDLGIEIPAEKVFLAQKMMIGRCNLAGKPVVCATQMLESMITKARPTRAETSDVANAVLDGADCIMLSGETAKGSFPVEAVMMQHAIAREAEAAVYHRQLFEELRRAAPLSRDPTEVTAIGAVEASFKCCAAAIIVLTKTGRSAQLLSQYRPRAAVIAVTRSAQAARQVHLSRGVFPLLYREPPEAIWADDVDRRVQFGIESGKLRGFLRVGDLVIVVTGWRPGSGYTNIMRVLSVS

Pyruvate kinase PKM [2] = molecular target: T2, Pyruvate kinase PKM (Rattus norvegicus, UniProt P11980); assay: Inhibition of rat muscle pyruvate kinase (PK-M)
T2 sequence (P11980 whole entry): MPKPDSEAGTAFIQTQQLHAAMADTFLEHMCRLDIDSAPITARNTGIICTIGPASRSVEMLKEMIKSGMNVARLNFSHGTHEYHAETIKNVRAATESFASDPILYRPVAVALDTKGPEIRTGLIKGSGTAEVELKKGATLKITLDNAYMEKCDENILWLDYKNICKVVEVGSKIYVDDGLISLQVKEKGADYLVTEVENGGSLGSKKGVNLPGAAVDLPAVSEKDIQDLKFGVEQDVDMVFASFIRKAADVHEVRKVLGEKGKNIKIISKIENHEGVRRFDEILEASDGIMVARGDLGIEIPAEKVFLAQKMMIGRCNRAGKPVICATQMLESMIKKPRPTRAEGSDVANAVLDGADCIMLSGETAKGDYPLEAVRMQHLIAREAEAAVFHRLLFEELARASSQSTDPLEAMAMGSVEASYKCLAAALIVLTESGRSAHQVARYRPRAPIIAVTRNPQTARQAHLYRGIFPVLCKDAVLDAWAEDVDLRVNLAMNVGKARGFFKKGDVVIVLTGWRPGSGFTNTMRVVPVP

Pyruvate kinase PKLR [3] = molecular target: T1, Pyruvate kinase PKLR; assay: Inhibition of rat liver pyruvate kinase (PK-L) at 7.2 mM
Pyruvate kinase PKLR [4] = molecular target: T1, Pyruvate kinase PKLR; assay: Inhibition of rat liver pyruvate kinase (PK-L) at 3.6 mM
Pyruvate kinase PKLR [5] = molecular target: T1, Pyruvate kinase PKLR; assay: Inhibition of rat liver pyruvate kinase (PK-L); (relative inhibitory potency)
Pyruvate kinase PKLR [6] = molecular target: T1, Pyruvate kinase PKLR; assay: Inhibition of rat kidney pyruvate kinase (PK-L)
Pyruvate kinase PKM [7] = molecular target: T2, Pyruvate kinase PKM; assay: Inhibition of rat muscle pyruvate kinase (PK-M) at 6.7 mM
Pyruvate kinase PKLR [8] = molecular target: T1, Pyruvate kinase PKLR; assay: Inhibition of rat liver pyruvate kinase (PK-L) at 10.7 mM
Pyruvate kinase PKM [9] = molecular target: T2, Pyruvate kinase PKM; assay: Inhibition of rat muscle pyruvate kinase (PK-M) at 10 mM

Row | Ki (Pyruvate kinase PKLR [1]) | Ki (Pyruvate kinase PKM [2]) | Structure (SMILES) | other results
1 | 32 mM | 9.3 mM | CO[C@H]1[C@@H](O)[C@H](n2cnc3c(N)ncnc32)O[C@@H]1COP(=O)(O)OP(=O)(O)O | –
2 | – | 1.6 mM | CC1O[C@@H]2[C@H](O1)[C@@H](COP(=O)(O)OP(=O)(O)O)O[C@H]2n1cnc2c(N)ncnc21 (some centres not stated) | Ki (Pyruvate kinase PKLR [3]): 2.2 mM; Ki (Pyruvate kinase PKLR [4]): 4.6 mM
3 | – | 0.9 mM | CCCNc1nc2c(N)ncnc2n1C1O[C@H](COP(=O)(O)OP(=O)(O)O)[C@@H](O)[C@H]1O (some centres not stated) | Ki (Pyruvate kinase PKLR [5]): 3.8 mM; Ki (Pyruvate kinase PKLR [6]): 1.6 mM
4 | 7.5 mM | 4.3 mM | CSc1nc2c(N)ncnc2n1C1O[C@H](COP(=O)(O)OP(=O)(O)O)[C@@H](O)[C@H]1O (some centres not stated) | –
5 | – | – | C[C@@H](OP(=O)(O)OP(=O)(O)O)[C@H]1OC(n2cnc3c(N)ncnc32)[C@H](O)[C@@H]1O (some centres not stated) | Ki (Pyruvate kinase PKM [7]): 7 mM; Ki (Pyruvate kinase PKLR [8]): 5.4 mM; Ki (Pyruvate kinase PKM [9]): 4.5 mM
6 | 2.2 mM and 3.9 mM | 0.5 mM and 0.87 mM | CCNc1nc2c(N)ncnc2n1C1O[C@H](COP(=O)(O)OP(=O)(O)O)[C@@H](O)[C@H]1O (some centres not stated) | –
7 | 8.4 mM | 3.7 mM | CCSc1nc2c(N)ncnc2n1C1O[C@H](COP(=O)(O)OP(=O)(O)O)[C@@H](O)[C@H]1O (some centres not stated) | –
